Measurements taken from patent US10125148B2, “Pyrazolopyrimidine macrocycles as inhibitors of human immunodeficiency virus replication” (priority 2014, dated 2018).

Tested on: NL-RLuc virus
Experiment: Inhibition of HIV replication (NL-RLuc luciferase reporter virus in MT-2 cells)
Format: cell-based
Details: Human immunodeficiency virus 1, MT2, 120 h

| SMILES | EC50 [nM] |
| --- | --- |
| Cc1ccc2c(c1F)-c1cccc(c1)-c1cc3nc(C)c([C@H](OC(C)(C)C)C(=O)O)c(n3n1)N1CCC(C)(CC1)OC/C=C/[C@H](C)O2 [Example 11, (2S)-2-(tert-Butoxy)-2-[(22S,23E)-16-fluoro-4,17,22,27-tetramethyl-21,26-dioxa-1,5,7,8-tetraazahexacyclo[25.2.2.1^6,9.1^10,14.0^2,7.0^15,20]tritriaconta-2,4,6(33),8,10(32),11,13,15(20),16,18,23-undecaen-3-yl]acetic acid] | 3 |
| Cc1nc2cc3nn2c(c1[C@H](OC(C)(C)C)C(=O)O)N1CCC(C)(CC1)OCCCC[C@H](C)Oc1ccc(C(F)(F)F)cc1-c1cccc-3c1 [Example 1, (2S)-2-(tert-Butoxy)-2-[(22S)-4,22,28-trimethyl-17-(trifluoromethyl)-21,27-dioxa-1,5,7,8-tetraazahexacyclo[26.2.2.1^6,9.1^10,14.0^2,7.0^15,20]tetratriaconta-2,4,6(34),8,10(33),11,13,15(20),16,18-decaen-3-yl]acetic acid] | 39 |
| Cc1cc(F)c2c(c1)O[C@@H](C)CCCCOC1(C)CCN(CC1)c1c([C@H](OC(C)(C)C)C(=O)O)c(C)nc3cc(nn13)-c1cccc-2c1 [Example 5, (2S)-2-(tert-Butoxy)-2-[(22S)-16-fluoro-4,18,22,28-tetramethyl-21,27-dioxa-1,5,7,8-tetraazahexacyclo[26.2.2.1^6,9.1^10,14.0^2,7.0^15,20]tetratriaconta-2,4,6(34),8,10(33),11,13,15(20),16,18-decaen-3-yl]acetic acid] | 22 |
| Cc1nc2cc3nn2c(c1[C@H](OC(C)(C)C)C(=O)O)N1CCC(C)(CCCCCC(C)Oc2ccc(C#N)cc2-c2cccc-3c2)CC1 (stereo in doubt) [Example 23, (2S)-2-(tert-Butoxy)-2-[(22S)-17-cyano-4,22,28-trimethyl-21-oxa-1,5,7,8-tetraazahexacyclo[26.2.2.1^6,9.1^10,14.0^2,7.0^15,20]tetratriaconta-2,4,6(34),8,10(33),11,13,15(20),16,18-decaen-3-yl]acetic acid] | 24 |
| Cc1ccc2c(c1)-c1cccc(c1)-c1cc3nc(C)c([C@H](OC(C)(C)C)C(=O)O)c(n3n1)N1CCC(C)(CCC=CCC(C)O2)CC1 (stereo in doubt) [Example 20, (2S)-2-(tert-Butoxy)-2-[(22S)-4,17,22,28-tetramethyl-21-oxa-1,5,7,8-tetraazahexacyclo[26.2.2.1^6,9.1^10,14.0^2,7.0^15,20]tetratriaconta-2,4,6(34),8,10(33),11,13,15(20),16,18,24-undecaen-3-yl]acetic acid] | 133 |
| COc1ccc2c(c1)-c1cccc(c1)-c1cc3nc(C)c([C@H](OC(C)(C)C)C(=O)O)c(n3n1)N1CCC(C)(CC1)OCCCC[C@H](C)O2 [Example 8, (2S)-2-(tert-Butoxy)-2-[(22S)-17-methoxy-4,22,28-trimethyl-21,27-dioxa-1,5,7,8-tetraazahexacyclo[26.2.2.1^6,9.1^10,14.0^2,7.0^15,20]tetratriaconta-2,4,6(34),8,10(33),11,13,15(20),16,18-decaen-3-yl]acetic acid] | 5 |
| Cc1ccc2c(c1F)-c1cccc(c1)-c1cc3nc(C)c([C@H](OC(C)(C)C)C(=O)O)c(n3n1)N1CCC(C)(CC1)OCCC[C@H](C)O2 [Example 12, (2S)-2-(tert-Butoxy)-2-[(22S)-16-fluoro-4,17,22,27-tetramethyl-21,26-dioxa-1,5,7,8-tetraazahexacyclo[25.2.2.1^6,9.1^10,14.0^2,7.0^15,20]tritriaconta-2,4,6(33),8,10(32),11,13,15(20),16,18-decaen-3-yl]acetic acid] | 3 |
| Cc1cc(F)c2c(c1)O[C@@H](C)/C=C/COC1(C)CCN(CC1)c1c([C@H](OC(C)(C)C)C(=O)O)c(C)nc3cc(nn13)-c1cccc-2c1 [Example 17, (2S)-2-(tert-Butoxy)-2-[(22S,23E)-16-fluoro-4,18,22,27-tetramethyl-21,26-dioxa-1,5,7,8-tetraazahexacyclo[25.2.2.1^6,9.1^10,14.0^2,7.0^15,20]tritriaconta-2,4,6(33),8,10(32),11,13,15(20),16,18,23-undecaen-3-yl]acetic acid] | 9 |
| Cc1nc2cc3nn2c(c1[C@H](OC(C)(C)C)C(=O)O)N1CCC(C)(CC1)OCCC[C@H](C)Oc1ccc(F)cc1-c1cccc-3c1 [Example 14, (2S)-2-(tert-Butoxy)-2-[(22S)-17-fluoro-4,22,27-trimethyl-21,26-dioxa-1,5,7,8-tetraazahexacyclo[25.2.2.1^6,9.1^10,14.0^2,7.0^15,20]tritriaconta-2,4,6(33),8,10(32),11,13,15(20),16,18-decaen-3-yl]acetic acid] | 9 |
| CCc1ccc2c(c1)-c1cccc(c1)-c1cc3nc(C)c([C@H](OC(C)(C)C)C(=O)O)c(n3n1)N1CCC(C)(CC1)OC/C=C/C[C@H](C)O2 [Example 6, (2S)-2-(tert-Butoxy)-2-[(22S)-17-ethyl-4,22,28-trimethyl-21,27-dioxa-1,5,7,8-tetraazahexacyclo[26.2.2.1^6,9.1^10,14.0^2,7.0^15,20]tetratriaconta-2,4,6(34),8,10(33),11,13,15(20),16,18,24-undecaen-3-yl]acetic acid] | 31 |
| Cc1ccc2c(c1)O[C@@H](C)CCCOC1(C)CCN(CC1)c1c([C@H](OC(C)(C)C)C(=O)O)c(C)nc3cc(nn13)-c1cccc-2c1 [Example 16, (2S)-2-(tert-Butoxy)-2-[(22S)-4,18,22,27-tetramethyl-21,26-dioxa-1,5,7,8-tetraazahexacyclo[25.2.2.1^6,9.1^10,14.0^2,7.0^15,20]tritriaconta-2,4,6(33),8,10(32),11,13,15(20),16,18-decaen-3-yl]acetic acid] | 8 |
| Cc1ccc2c(c1)O[C@@H](C)/C=C/COC1(C)CCN(CC1)c1c([C@H](OC(C)(C)C)C(=O)O)c(C)nc3cc(nn13)-c1cccc-2c1 [Example 15, (2S)-2-(tert-Butoxy)-2-[(22S,23E)-4,18,22,27-tetramethyl-21,26-dioxa-1,5,7,8-tetraazahexacyclo[25.2.2.1^6,9.1^10,14.0^2,7.0^15,20]tritriaconta-2,4,6(33),8,10(32),11,13,15(20),16,18,23-undecaen-3-yl]acetic acid] | 8 |
| Cc1nc2cc3nn2c(c1[C@H](OC(C)(C)C)C(=O)O)N1CCC(C)(CC1)OCCC[C@H](C)Oc1cc(F)ccc1-c1cccc-3c1 [Example 10, (2S)-2-(tert-Butoxy)-2-[(22S)-18-fluoro-4,22,27-trimethyl-21,26-dioxa-1,5,7,8-tetraazahexacyclo[25.2.2.1^6,9.1^10,14.0^2,7.0^15,20]tritriaconta-2,4,6(33),8,10(32),11,13,15(20),16,18-decaen-3-yl]acetic acid] | 11 |
| Cc1cc(F)c2c(c1)O[C@@H](C)C/C=C/COC1(C)CCN(CC1)c1c([C@H](OC(C)(C)C)C(=O)O)c(C)nc3cc(nn13)-c1cccc-2c1 [Example 4, (2S)-2-(tert-Butoxy)-2-[(22S,24E)-16-fluoro-4,18,22,28-tetramethyl-21,27-dioxa-1,5,7,8-tetraazahexacyclo[26.2.2.1^6,9.1^10,14.0^2,7.0^15,20]tetratriaconta-2,4,6(34),8,10(33),11,13,15(20),16,18,24-undecaen-3-yl]acetic acid] | 23 |
| Cc1nc2cc3nn2c(c1[C@H](OC(C)(C)C)C(=O)O)N1CCC(C)(CC1)OCCCC[C@H](C)Oc1cc(F)ccc1-c1ccc(F)c-3c1 [Example 26, (2S)-2-(tert-Butoxy)-2-[(22S)-11,18-difluoro-4,22,28-trimethyl-21,27-dioxa-1,5,7,8-tetraazahexacyclo[26.2.2.1^6,9.1^10,14.0^2,7.0^15,20]tetratriaconta-2,4,6(34),8,10(33),11,13,15(20),16,18-decaen-3-yl]acetic acid] | 49 |
| Cc1nc2cc3nn2c(c1[C@H](OC(C)(C)C)C(=O)O)N1CCC(C)(CC1)OCCCC[C@H](C)Oc1cc(F)c(F)cc1-c1cccc-3c1 [Example 2, (2S)-2-(tert-Butoxy)-2-[(22S)-17,18-difluoro-4,22,28-trimethyl-21,27-dioxa-1,5,7,8-tetraazahexacyclo[26.2.2.1^6,9.1^10,14.0^2,7.0^15,20]tetratriaconta-2,4,6(34),8,10(33),11,13,15(20),16,18-decaen-3-yl]acetic acid] | 26 |
| Cc1nc2cc3nn2c(c1[C@H](OC(C)(C)C)C(=O)O)N1CCC(C)(CC1)OCCCC[C@H](C)Oc1ccc(C(=O)NCCC(C)(C)C)cc1-c1cccc-3c1 [Example 25, (2S)-2-(tert-Butoxy)-2-[(22S)-17-[(3,3-dimethylbutyl)carbamoyl]-4,22,28-trimethyl-21,27-dioxa-1,5,7,8-tetraazahexacyclo[26.2.2.1^6,9.1^10,14.0^2,7.0^15,20]tetratriaconta-2,4,6(34),8,10(33),11,13,15(20),16,18-decaen-3-yl]acetic acid] | 4 |
| Cc1nc2cc3nn2c(c1[C@H](OC(C)(C)C)C(=O)O)N1CCC(C)(CCCCCC(C)Oc2ccc(C(N)=O)cc2-c2cccc-3c2)CC1 (stereo in doubt) [Example 24, (2S)-2-(tert-butoxy)-2-[(22S)-17-carbamoyl-4,22,28-trimethyl-21-oxa-1,5,7,8-tetraazahexacyclo[26.2.2.1^6,9.1^10,14.0^2,7.0^15,20]tetratriaconta-2,4,6(34),8,10(33),11,13,15(20),16,18-decaen-3-yl]acetic acid] | 4 |
| Cc1nc2cc3nn2c(c1[C@H](OC(C)(C)C)C(=O)O)N1CCC(C)(CC1)OCCCC[C@H](C)Oc1cc(F)ccc1-c1cc-3ccc1F [Example 28, (2S)-2-(tert-Butoxy)-2-[(22S)-13,18-difluoro-4,22,28-trimethyl-21,27-dioxa-1,5,7,8-tetraazahexacyclo[26.2.2.1^6,9.1^10,14.0^2,7.0^15,20]tetratriaconta-2,4,6(34),8,10(33),11,13,15(20),16,18-decaen-3-yl]acetic acid] | 27 |
| Cc1nc2cc3nn2c(c1[C@H](OC(C)(C)C)C(=O)O)N1CCC(C)(CCC=CCC(C)Oc2ccc(C#N)cc2-c2cccc-3c2)CC1 (stereo in doubt) [Example 22, (2S)-2-(tert-Butoxy)-2-[(22S)-17-cyano-4,22,28-trimethyl-21-oxa-1,5,7,8-tetraazahexacyclo[26.2.2.1^6,9.1^10,14.0^2,7.0^15,20]tetratriaconta-2,4,6(34),8,10(33),11,13,15(20),16,18,24-undecaen-3-yl]acetic acid] | 13 |
